According to US11912717B2 (Shenzhen Tenver Biopharm Co., Ltd., priority 2018, dated 2024):

Assay: Stability test (accelerated experiment, sealed PE/aluminum foil bags, 40±2° C., humidity 75±5%)
Conditions: for Purity by HPLC / Appearance / XRPD: 40±2° C., humidity 75±5%
Procedure: X-ray powder diffractometer model: Rigaku D/max-2200 Cu target; operation condition: scanning speed, 4°/min, scanning step width, 0.01°.
High performance liquid chromatograph, Agilent1100; Chromatographic column: C18, 4.6 mm×250 mm; mobile phase, acetonitrile:0.1% phosphoric acid aqueous solution=65:35 (v:v); Detection wavelength: 240 nm; flow rate, 1.0 ml/min; Column temperature: 25° C.
The bags were electrothermally sealed, and then placed into aluminum foil bags which were also electrothermally sealed.

Which “Purity by HPLC” value (first month) does the source give for “tenvermectin B [crystal form I of tenvermectin B]” here?
The value was 99.0.

And the Appearance (first month, cell wraps: White / crystalline / powder)?
The Appearance was “White”.

What about the XRPD (first month, cell wraps: crystal / form I) of the same substance?
The XRPD was “crystal”.

What about the “Purity by HPLC” value (initial data) of the same substance?
The value was 99.1.

And the XRPD (initial data, cell wraps over 2 lines: crystal / form I)?
The XRPD was “crystal”.

And the Appearance (initial data, cell wraps over 3 lines: White / crystalline / powder)?
The Appearance was “White”.

What about the “Purity by HPLC” value (second month) of the same substance?
Its value is 99.1.

What about the Appearance (second month, cell wraps: White / crystalline / powder) of the same substance?
The Appearance was “White”.

And the XRPD (second month, cell wraps: crystal / form I)?
Its XRPD is “crystal”.

What about the “Purity by HPLC” value (sixth month) of the same substance?
Its value is 98.9.

And the Appearance (sixth month, cell wraps: White / crystalline / powder)?
Its Appearance is “White”.

And the XRPD (sixth month, cell wraps: crystal / form I)?
The XRPD was “crystal”.

What about the “crystal transformation phenomenon in the stability experiment” value (stability experiment) of the same substance?
The value was “does not occur”.

What about the “Purity by HPLC” value (third month) of the same substance?
The value was 98.9.

And the Appearance (third month, cell wraps: White / crystalline / powder)?
The Appearance was “White”.

And the XRPD (third month, cell wraps: crystal / form I)?
Its XRPD is “crystal”.
